Data reported in patent US20170280720A1, “ARGININE […] INHIBITORS AND USES THEREOF” (EPIZYME, INC., priority 2014, published 2017).
Where a name gives a salt, the structure may show the parent alone.

Molecular target: T1, Human CARM1 (PRMT4) (Homo sapiens, UniProt Q86X55)
T1 construct: Flag-CARM1-His; made in house; host or cells: HEK 293F cells (BacMam baculovirus, pFastBacMam)
T1 sequence (Q86X55 2-585 isoform Q86X55-1): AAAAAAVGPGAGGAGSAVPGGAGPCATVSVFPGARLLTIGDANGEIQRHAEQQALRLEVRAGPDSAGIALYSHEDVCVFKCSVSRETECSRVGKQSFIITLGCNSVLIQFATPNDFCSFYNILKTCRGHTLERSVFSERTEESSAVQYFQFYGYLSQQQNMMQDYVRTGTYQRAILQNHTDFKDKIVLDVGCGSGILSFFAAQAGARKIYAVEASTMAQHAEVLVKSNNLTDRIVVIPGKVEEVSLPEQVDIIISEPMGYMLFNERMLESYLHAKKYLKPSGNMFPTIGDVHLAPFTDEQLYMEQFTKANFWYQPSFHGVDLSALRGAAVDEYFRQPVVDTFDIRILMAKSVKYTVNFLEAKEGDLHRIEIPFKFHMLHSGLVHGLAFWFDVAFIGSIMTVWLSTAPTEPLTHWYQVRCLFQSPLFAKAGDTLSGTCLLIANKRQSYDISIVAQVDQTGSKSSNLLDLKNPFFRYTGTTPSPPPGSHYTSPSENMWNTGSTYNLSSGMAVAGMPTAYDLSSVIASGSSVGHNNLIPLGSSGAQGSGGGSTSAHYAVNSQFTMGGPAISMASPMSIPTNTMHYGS
Assay: CARM1 biochemical assay (3H-SAM Flashplate, peptide substrate)
Details: read-out: CARM1_ IC50
In short: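 FLAG/His-tagged human CARM1 (isoform 1, Δ539-561, baculovirus-expressed), 0.25 nM, preincubated 30 min at room temperature with compound (2% DMSO) in 20 mM Bicine pH 7.6, then reacted with 30 nM 3H-SAM and 250 nM biotinylated H3 16-30 peptide (R26 monomethyl). Stopped with 300 uM cold SAM; labelled peptide captured on streptavidin Flashplate; % inhibition versus DMSO and 1 mM SAH controls fitted to a 4- or 3-parameter curve.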

Row | IC50 | SMILES
1 | 46 nM | CC(C)n1ncc2c(C(=O)N(C)[C@@H](C)c3ccccc3)cc(-c3cccc(CN(C)CCN)c3)cc21 [Compound 3]
2 | 6830 nM | Cc1c(C(=O)NCc2ccccc2)cc(-c2ccc(CN(C)CCN)cc2)c2cn[nH]c12 [Compound 7]
3 | 3870 nM | COc1cccc(Cn2cnc3ccc(-c4ccc(CN(C)CCN)cc4)cc32)c1 [Compound 8]
4 | 7.59 nM | CNCCN(C)Cc1cccc(-c2nc(NCc3ccccn3)c3cnn(C4CC4)c3n2)c1 [Compound 9]
5 | 154 nM | CCC(O)c1cc(-c2cccc(CN(C)CCNC)c2)nc2c1cnn2C(C)C (stereo not shown) [Compound 48]
6 | 12.4 nM | CNCCN(C)Cc1cccc(-c2cc(-c3cnn(C)c3)c3cnn(C(C)C)c3n2)c1 [Compound 49, N1-(3-(1-isopropyl-4-(1-methyl-1H-pyrazol-4-yl)-1H-pyrazolo[3,4-b]pyridin-6-yl)benzyl)-N1,N2-dimethylethane-1,2-diamine]
7 | 16.7 nM | CNCCN(C)Cc1cccc(-c2cc(N3CCC(OC)CC3)c3cnn(C(C)C)c3n2)c1 [Compound 51]
8 | 4.04 nM | Cc1c(CNc2nc(-c3cccc(CN(C)CCN)c3)nc3c2cnn3C2CC2)cnn1C [Compound 52]
9 | 19.9 nM | CCOc1cc(-c2cccc(CN(C)CCNC)c2)nc2c1cnn2C(C)C [Compound 53]
10 | 26.1 nM | CC(C)n1ncc2c(C(=O)NCc3ccccc3Cl)cc(-c3cccc(CN(C)CCN)c3)nc21 [Compound 54]
11 | 219 nM | CNCCN(C)Cc1cccc(-c2cc(C(=O)N3CCCCC3)c3cnn(C(C)C)c3n2)c1 [Compound 56]
12 | 5.22 nM | CC(C)n1ncc2c(N3CCOCC3)cc(-c3cccc(CN(C)CCN)c3)nc21 [Compound 61, N1-(3-(1-isopropyl-4-morpholino-1H-pyrazolo[3,4-b]pyridin-6-yl)benzyl)-N1-methylethane-1,2-diamine]
13 | 17 nM | CNCCN(C)Cc1cccc(-c2nc(NCc3cccnc3)c3cnn(C4CC4)c3n2)c1 [Compound 63]
14 | 9.84 nM | CNCCN(C)Cc1cccc(-c2cc(N3CCOCC3)c3cnn(C(C)C)c3n2)c1 [Compound 68]
15 | 19.5 nM | CNCCN(C)Cc1cccc(-c2nc(NCc3ccncc3)c3cnn(C4CC4)c3n2)c1 [Compound 69]
16 | 11700 nM | NCCNCc1ccc(-c2ccc3ncn(CC4CCNCC4)c3c2)cc1 [Compound 70]
17 | 13.2 nM | CNCCN(C)Cc1cccc(-c2cc(NC3CCOCC3)c3cnn(C(C)C)c3n2)c1 [Compound 76]
18 | 4810 nM | COc1ccccc1Cn1cnc2ccc(-c3ccc(CNCCN)cc3)cc21 [Compound 80]
19 | 8130 nM | Cc1ccccc1Cn1cnc2ccc(-c3ccc(CNCCN)cc3)cc21 [Compound 82]
20 | 14 nM | CNCCN(C)Cc1cccc(-c2cc(NC(=O)NC(C)C)c3cnn(C(C)C)c3n2)c1 [Compound 85]
21 | 16.5 nM | CNCCN(C)Cc1cccc(-c2cc(C(=O)NCCCC(=O)NCc3ccn(C)n3)c3cnn(C(C)C)c3n2)c1 [Compound 88]
22 | 10.6 nM | CNCCN(C)Cc1cccc(-c2cc(N3CCC(C#N)CC3)c3cnn(C(C)C)c3n2)c1 [Compound 93]
23 | 4270 nM | COc1cccc(CCn2cnc3ccc(-c4ccc(CNCCN)cc4)cc32)c1 [Compound 94]
24 | 8190 nM | Cc1ccc(Cn2cnc3ccc(-c4ccc(CNCCN)cc4)cc32)cc1 [Compound 97]
25 | 3700 nM | CNCCN(C)Cc1cccc(-c2ccc3cnn(C(C)C)c3c2)c1 [Compound 100]
26 | 22.4 nM | CNCCN(C)Cc1cccc(-c2cc(OC3CCOC3)c3cnn(C(C)C)c3n2)c1 (stereo not shown) [Compound 102]
27 | 4120 nM | NCCNCc1ccc(-c2ccc3ncn(Cc4ccc(C(=O)N5CCCC5)cc4)c3c2)cc1 [Compound 104]
28 | 25.8 nM | CC(C)n1ncc2c(NS(=O)(=O)N(C)C)cc(-c3cccc(CN(C)CCN)c3)nc21 [Compound 107]

Further lines, the compound ahead of its results:

Row | SMILES | IC50
29 | CNCCN(C)Cc1cccc(-c2cnc3c(c2)c(C2CC2)nn3CC2CCOCC2)c1 [Compound 4] | 1400 nM
30 | CN(CCN)Cc1cccc(-c2nc(NCc3cn4ccsc4n3)c3cnn(C4CC4)c3n2)c1 [Compound 5] | 3.24 nM
31 | CNCCN(C)Cc1cccc(-c2nc(NCc3cn4ccsc4n3)c3cnn(C4CC4)c3n2)c1 [Compound 6] | 23.8 nM
32 | CNCCN(C)Cc1cccc(-c2cc(N3CCC(C(F)(F)F)CC3)c3cnn(C(C)C)c3n2)c1 [Compound 50] | 27.6 nM
33 | CNCCN(C)Cc1cccc(-c2cc(N3CCCC(C#N)C3)c3cnn(C(C)C)c3n2)c1 (stereo not shown) [Compound 55] | 35.5 nM
34 | CNCCN(C)Cc1cccc(-c2nc(NCc3cnn(C)c3C)c3cnn(C4CC4)c3n2)c1 [Compound 57] | 18.5 nM
35 | CNCCN(C)Cc1cccc(-c2cc(NC3COC3)c3cnn(C(C)C)c3n2)c1 [Compound 58] | 22.2 nM
36 | CC(C)n1cc2c(Cl)cc(-c3cccc(CN(C)CCN)c3)nc2n1 [Compound 59] | 707 nM
37 | CNCCN(C)Cc1cccc(-c2cc(C(=O)NCCCC(=O)NCC3CCOCC3)c3cnn(C(C)C)c3n2)c1 [Compound 60] | 17.2 nM
38 | CNCCN(C)Cc1cccc(-c2cc(N3CCOCC3)n3ncc(C(C)C)c3n2)c1 [Compound 62, N1-(3-(3-isopropyl-7-morpholinopyrazolo[1,5-a]pyrimidin-5-yl)benzyl)-N1,N2-dimethylethane-1,2-diamine formate] | 20.8 nM
39 | CNCCN(C)Cc1cccc(-c2cc(C(=O)NCCC(=O)NCC3CCOCC3)c3cnn(C(C)C)c3n2)c1 [Compound 64] | 24.9 nM
40 | CC(C)n1ncc2c(C(=O)NCc3ccccc3F)cc(-c3cccc(CN(C)CCN)c3)nc21 [Compound 65] | 8.39 nM
41 | CN(CCN)Cc1cccc(-c2nc(NCc3ccncc3)c3cnn(C4CC4)c3n2)c1 [Compound 66] | 6.32 nM
42 | CNCCN(C)Cc1cccc(-c2cc(-c3ccoc3)c3cnn(C(C)C)c3n2)c1 [Compound 67] | 28.1 nM
43 | COC(=O)Nc1cc(-c2cccc(CN(C)CCN)c2)nc2c1cnn2C(C)C [Compound 71] | 10.6 nM
44 | CCNc1cc(-c2cccc(CN(C)CCNC)c2)nc2c1cnn2C(C)C [Compound 72] | 109 nM
45 | CNCCN(C)Cc1cccc(-c2ccc3cnn(C(C)C)c3n2)c1 [Compound 73] | 381 nM
46 | CNCCN(C)Cc1cccc(-c2cc(C#N)c3cnn(C(C)C)c3n2)c1 [Compound 74] | 38.4 nM
47 | CNCCN(C)Cc1cccc(-c2ccc3nc[nH]c3c2)c1 [Compound 75] | 10000 nM
48 | CCOC(=O)c1cc(-c2cccc(CN(C)CCNC)c2)nc2c1cnn2C(C)C [Compound 78] | 18 nM

Row | SMILES | IC50
49 | CNCCN(C)Cc1cccc(-c2cc(N3CCC3)c3cnn(C(C)C)c3n2)c1 [Compound 79] | 14.5 nM
50 | NCCNCc1ccc(-c2ccc3ncn(CC4CCCNC4)c3c2)cc1 (stereo not shown) [Compound 81] | 4270 nM
51 | CNCCN(C)Cc1cccc(-c2cc(C(=O)NCCC(=O)NCc3ccn(C)n3)c3cnn(C(C)C)c3n2)c1 [Compound 83] | 25.7 nM
52 | CC(C)n1ncc2c(NC(=O)OCc3ccccc3)cc(-c3cccc(CN(C)CCN)c3)nc21 [Compound 84] | 13.7 nM
53 | CC(C)NC(=O)Nc1cc(-c2cccc(CN(C)CCN)c2)nc2c1cnn2C(C)C [Compound 86] | 8.11 nM
54 | CNCCN(C)Cc1cccc(-c2cc(C(=O)NC3CCOCC3)c3cnn(C4CC4)c3n2)c1 [Compound 87] | 36.8 nM
55 | CNCCN(C)Cc1cccc(-c2ccc3ncn(C)c3c2)c1 [Compound 92] | 6490 nM
56 | CNCCN(C)Cc1cccc(-c2cc(N(C)C3CC3)c3cnn(C(C)C)c3n2)c1 [Compound 95] | 36.5 nM
57 | CN(CCN)Cc1cccc(-c2nc(NC3CC3)c3cnn(C4CC4)c3n2)c1 [Compound 96] | 8.42 nM
58 | CNCCN(C)Cc1cccc(-c2cc(C(=O)NCc3ccccn3)c3cnn(C(C)C)c3n2)c1 [Compound 98] | 32.4 nM
59 | CNCCN(C)Cc1cccc(-c2nc(N3CCOCC3)c3cnn(C(C)C)c3n2)c1 [Compound 99] | 11.3 nM
60 | CC(C)n1ncc2c(NC3CCOCC3)cc(-c3cccc(CN(C)CCN)c3)nc21 [Compound 101] | 5.11 nM
61 | CNCCN(C)Cc1cccc(-c2cc(N(C)C)c3cnn(C(C)C)c3n2)c1 [Compound 103] | 57.7 nM
62 | CNCCN(C)Cc1cccc(-c2cc(C(=O)NCC3CCOCC3)c3cnn(C(C)C)c3n2)c1 [Compound 105] | 18.1 nM
63 | Cc1cccc(-n2cnc3ccc(-c4ccc(CNCCN)cc4)cc32)c1 [Compound 106] | 14900 nM
64 | CC(C)n1ncc2c(C(=O)NCC3CCOCC3)cc(-c3cccc(CN(C)CCN)c3)nc21 [Compound 108] | 10.4 nM
65 | CNCCN(C)Cc1cccc(-c2nc(N(C)C3CCOCC3)c3cnn(C4CC4)c3n2)c1 [Compound 109, N1-(3-(1-cyclopropyl-4-(methyl(tetrahydro-2H-pyran-4-yl)amino)-1H-pyrazolo[3,4-d]pyrimidin-6-yl)benzyl)-N1,N2-dimethylethane-1,2-diamine] | 5.02 nM
66 | COc1cccc(-n2cnc3ccc(-c4ccc(CNCCN)cc4)cc32)c1 [Compound 110] | 10600 nM
67 | CCS(=O)(=O)Nc1cc(-c2cccc(CN(C)CCN)c2)nc2c1cnn2C(C)C [Compound 111] | 131 nM
